# Test results reported in PubChem BioAssay AID190 (DTP/NCI, 2004).
# Values joined by “and” are separate entries in the source; they are usually repeats but may differ in a detail not shown here. Identical values can stand only once. Inconclusive results and toxic doses are left out.
# Test system: AKR/Lw mice, AKR lymphoma ip, median survival T/C
# Assay: NCI In Vivo Anticancer Drug Screen. Data for tumor model Lymphoma AKR (Transplanted) (intraperitoneal) in AKR/Lw mice
# Settings: endpoint: median survival time, higher = longer survival
# Experimental: The antitumor activity of compounds was measured in mice bearing transplantable tumors. Survival or tumor size were measured and the results are expressed as the measurement made in the treated group (T) divided by the measurement made in the vehicle treated control group (C). The tumor model used in this assay is Lymphoma AKR (Transplanted) (intraperitoneal) in AKR/Lw mice
# [1] = dose: 5.0 mg/kg/injection, schedule: Q01DX001 (ip), vehicle: saline
# [2] = dose: 10.0 mg/kg/injection, schedule: Q01DX001 (ip), vehicle: saline
# [3] = dose: 20.0 mg/kg/injection, schedule: Q01DX001 (ip), vehicle: saline
# [4] = dose: 25.0 mg/kg/injection, schedule: Q01DX001 (ip), vehicle: saline
# [5] = dose: 50.0 mg/kg/injection, schedule: Q01DX001 (ip), vehicle: saline
# [6] = dose: 100.0 mg/kg/injection, schedule: Q01DX001 (ip), vehicle: saline
# [7] = dose: 200.0 mg/kg/injection, schedule: Q01DX001 (ip), vehicle: saline
# [8] = dose: 400.0 mg/kg/injection, schedule: Q01DX001 (ip), vehicle: saline
# [9] = dose: 100.0 mg/kg/injection, schedule: Q01DX001 (ip), vehicle: Klucel (hydroxypropylcellulose) (HPC)
# [10] = dose: 200.0 mg/kg/injection, schedule: Q01DX001 (ip), vehicle: Klucel (hydroxypropylcellulose) (HPC)
# [11] = dose: 400.0 mg/kg/injection, schedule: Q01DX001 (ip), vehicle: Klucel (hydroxypropylcellulose) (HPC)
structure (smiles),measurement,setting,value
O=c1[nH]cc(F)c(=O)[nH]1,T/C,"dose: 1.25 mg/kg/injection, schedule: Q01DX005 (ip), vehicle: saline",152 % of control
same,T/C,"dose: 1.25 mg/kg/injection, schedule: Q03HX032 (ip), vehicle: saline",118 % of control
same,T/C,"dose: 2.5 mg/kg/injection, schedule: Q01DX005 (ip), vehicle: saline",114 % of control
same,T/C,"dose: 2.5 mg/kg/injection, schedule: Q01DX015 (ip), vehicle: saline",113 % of control
same,T/C,"dose: 3.1 mg/kg/injection, schedule: Q04DX003 (ip), vehicle: saline",123 % of control
same,T/C,[1],102 % of control
same,T/C,"dose: 5.0 mg/kg/injection, schedule: Q01DX009 (ip), vehicle: saline",100 % of control and 106 % of control
same,T/C,"dose: 5.0 mg/kg/injection, schedule: Q01DX015 (ip), vehicle: saline",108 % of control
same,T/C,"dose: 5.0 mg/kg/injection, schedule: Q04DX003 (ip), vehicle: saline",97 % of control
same,T/C,"dose: 5.0 mg/kg/injection, schedule: Q04DX004 (ip), vehicle: saline",115 % of control
same,T/C,"dose: 5.0 mg/kg/injection, schedule: Q##DX003 (ip), vehicle: saline",97 % of control
same,T/C,"dose: 6.2 mg/kg/injection, schedule: Q01DX001 (ip), vehicle: saline",104 % of control
same,T/C,"dose: 6.2 mg/kg/injection, schedule: Q04DX003 (ip), vehicle: saline",113 % of control
same,T/C,"dose: 7.5 mg/kg/injection, schedule: Q01DX009 (ip), vehicle: saline",105 % of control
same,T/C,"dose: 9.0 mg/kg/injection, schedule: Q04DX003 (ip), vehicle: saline",112 % of control
same,T/C,[2],94 % of control
same,T/C,"dose: 10.0 mg/kg/injection, schedule: Q01DX009 (ip), vehicle: saline with Tween-80",118 % of control
same,T/C,"dose: 10.0 mg/kg/injection, schedule: Q01DX015 (ip), vehicle: saline",180 % of control
same,T/C,"dose: 10.0 mg/kg/injection, schedule: Q04DX003 (ip), vehicle: saline",168 % of control
same,T/C,"dose: 10.0 mg/kg/injection, schedule: Q##DX003 (ip), vehicle: saline",168 % of control
same,T/C,"dose: 12.5 mg/kg/injection, schedule: Q01DX001 (ip), vehicle: saline",100 % of control and 121 % of control
same,T/C,"dose: 15.0 mg/kg/injection, schedule: Q01DX009 (ip), vehicle: saline",113 % of control
same,T/C,"dose: 15.0 mg/kg/injection, schedule: Q01DX015 (ip), vehicle: saline",150 % of control and 177 % of control
same,T/C,"dose: 15.0 mg/kg/injection, schedule: Q04DX004 (ip), vehicle: saline",113 % of control
same,T/C,"dose: 18.0 mg/kg/injection, schedule: Q04DX003 (ip), vehicle: water",98 % of control
same,T/C,[3],105 % of control
same,T/C,"dose: 20.0 mg/kg/injection, schedule: Q01DX005 (ip), vehicle: saline",161 % of control
same,T/C,"dose: 20.0 mg/kg/injection, schedule: Q01DX009 (ip), vehicle: saline with Tween-80",122 % of control
same,T/C,"dose: 20.0 mg/kg/injection, schedule: Q01DX015 (ip), vehicle: saline",167 % of control
same,T/C,"dose: 20.0 mg/kg/injection, schedule: Q03HX024 (ip), vehicle: saline",95 % of control
same,T/C,"dose: 20.0 mg/kg/injection, schedule: Q04DX003 (ip), vehicle: saline",107 % of control
same,T/C,"dose: 20.0 mg/kg/injection, schedule: Q##DX003 (ip), vehicle: saline",107 % of control
same,T/C,"dose: 24.0 mg/kg/injection, schedule: Q04DX003 (ip), vehicle: water",119 % of control
same,T/C,[4],109 % of control and 116 % of control
same,T/C,"dose: 30.0 mg/kg/injection, schedule: Q01DX005 (ip), vehicle: saline",161 % of control
same,T/C,"dose: 30.0 mg/kg/injection, schedule: Q01DX009 (ip), vehicle: saline",177 % of control
same,T/C,"dose: 30.0 mg/kg/injection, schedule: Q04DX004 (ip), vehicle: saline",107 % of control
same,T/C,"dose: 36.0 mg/kg/injection, schedule: Q04DX003 (ip), vehicle: water",163 % of control
same,T/C,"dose: 40.0 mg/kg/injection, schedule: Q01DX009 (ip), vehicle: saline with Tween-80",86 % of control
same,T/C,"dose: 40.0 mg/kg/injection, schedule: Q04DX004 (ip), vehicle: saline",168 % of control
same,T/C,"dose: 40.0 mg/kg/injection, schedule: Q##DX003 (ip), vehicle: saline",97 % of control
same,T/C,"dose: 45.0 mg/kg/injection, schedule: Q04DX004 (ip), vehicle: saline",123 % of control and 291 % of control
same,T/C,"dose: 60.0 mg/kg/injection, schedule: Q04DX003 (ip), vehicle: saline",89 % of control
same,T/C,"dose: 60.0 mg/kg/injection, schedule: Q04DX004 (ip), vehicle: saline",157 % of control and 352 % of control
same,T/C,"dose: 60.0 mg/kg/injection, schedule: Q04DX008 (ip), vehicle: saline",108 % of control
same,T/C,"dose: 75.0 mg/kg/injection, schedule: Q01DX001 (ip), vehicle: saline",150 % of control and 166 % of control
same,T/C,"dose: 75.0 mg/kg/injection, schedule: Q04DX003 (ip), vehicle: saline",260 % of control
same,T/C,"dose: 75.0 mg/kg/injection, schedule: Q04DX004 (ip), vehicle: saline",88 % of control
same,T/C,"dose: 80.0 mg/kg/injection, schedule: Q04DX003 (ip), vehicle: saline",99 % of control
same,T/C,"dose: 150.0 mg/kg/injection, schedule: Q04DX003 (ip), vehicle: saline",105 % of control
same,T/C,"dose: 300.0 mg/kg/injection, schedule: Q04DX003 (ip), vehicle: saline",88 % of control
CN(C)C(C)(C)CNc1ccc(C(=O)O)cc1,T/C,[4],88 % of control
same,T/C,[5],91 % of control and 95 % of control
same,T/C,[6],97 % of control and 91 % of control
CC(=O)N1C(=O)C2(c3ccccc31)c1cccc3c1C(=C1C(=O)OC(=O)C12)C(=O)N3C(C)=O (stereo not drawn),T/C,[7],86 % of control
same,T/C,[8],91 % of control
C[N+](C)(C)Cc1ccccc1,T/C,[4],91 % of control
COc1ccc(/C=C2/CSC/C(=C/c3ccc(OC)c(OC)c3)C2=O)cc1OC,T/C,[6],96 % of control
same,T/C,[7],88 % of control
same,T/C,[8],90 % of control
COc1cc2c(cc1OC)C13CCN4CC5=CCOC6CC(=O)N2C1C6C5CC43 (stereo not drawn) (tested in a mixture with another compound),T/C,"dose: 45.0 mg/kg/injection, schedule: Q01DX001 (ip), vehicle: Klucel (hydroxypropylcellulose) (HPC)",100 % of control
same,T/C,"dose: 65.0 mg/kg/injection, schedule: Q01DX001 (ip), vehicle: Klucel (hydroxypropylcellulose) (HPC)",100 % of control
same,T/C,[9],106 % of control and 108 % of control
same,T/C,"dose: 150.0 mg/kg/injection, schedule: Q01DX001 (ip), vehicle: Klucel (hydroxypropylcellulose) (HPC)",100 % of control
COc1ccc(N2CSC(=S)N(c3ccc(OC)cc3)C2)cc1,T/C,[9],88 % of control
same,T/C,[10],88 % of control
same,T/C,[11],92 % of control
O=C1N[C@@H]([C@H]2CC[C@H](Cl)CN2)C(=O)N[C@H]1[C@H]1CC[C@H](Cl)CN1,T/C,"dose: 0.5 mg/kg/injection, schedule: Q01DX001 (ip), vehicle: water",113 % of control
same,T/C,"dose: 1.0 mg/kg/injection, schedule: Q01DX001 (ip), vehicle: water",111 % of control
same,T/C,"dose: 2.0 mg/kg/injection, schedule: Q01DX001 (ip), vehicle: saline",102 % of control and 105 % of control
same,T/C,"dose: 2.0 mg/kg/injection, schedule: Q01DX001 (ip), vehicle: water",114 % of control and 119 % of control
same,T/C,"dose: 2.0 mg/kg/injection, schedule: Q01DX009 (ip), vehicle: water",178 % of control
same,T/C,"dose: 4.0 mg/kg/injection, schedule: Q01DX001 (ip), vehicle: saline",102 % of control
same,T/C,"dose: 4.0 mg/kg/injection, schedule: Q01DX001 (ip), vehicle: water",117 % of control
same,T/C,"dose: 8.0 mg/kg/injection, schedule: Q01DX001 (ip), vehicle: saline",122 % of control
same,T/C,"dose: 8.0 mg/kg/injection, schedule: Q01DX001 (ip), vehicle: water",171 % of control and 200 % of control
same,T/C,"dose: 16.0 mg/kg/injection, schedule: Q01DX001 (ip), vehicle: saline",108 % of control
same,T/C,"dose: 16.0 mg/kg/injection, schedule: Q01DX001 (ip), vehicle: water",207 % of control
CCN(CC)CCOc1ccc2c(c1)C(=O)c1cc(OCCN(CC)CC)ccc1-2,T/C,"dose: 2.5 mg/kg/injection, schedule: Q01DX001 (ip), vehicle: saline",106 % of control
same,T/C,[1],106 % of control
same,T/C,[2],106 % of control
same,T/C,[3],100 % of control
same,T/C,"dose: 25.0 mg/kg/injection, schedule: Q01DX007 (ip), vehicle: saline",272 % of control
same,T/C,[5],102 % of control
same,T/C,"dose: 50.0 mg/kg/injection, schedule: Q01DX007 (ip), vehicle: saline",102 % of control
CCOC(=O)C1OC12CCCCC2 (stereo not drawn),T/C,[9],96 % of control
same,T/C,[10],92 % of control
same,T/C,[11],100 % of control
